Experimental findings from PMC10487658, “Identification and Characterization of RK22, a Novel Antimicrobial Peptide from Hirudinaria manillensis against Methicillin Resistant Staphylococcus aureus” (International Journal of Molecular Sciences, 2023) are described below.

One data set has as its system S. aureus (ATCC6538). Nature of the data set: microbe, parasite or virus in culture. The class given is cell-based, Staphylococcus aureus. As for the experimental part:
(§1) The bacterial strains used in this study included Pseudomonas aeruginosa (P. aeruginosa, ATCC27853), Acinetobacter baumannii (A. baumannii, ATCC19606), Escherichia coli (E. coli, ATCC8739), and S. aureus (ATCC6538, two clinically isolated strains (SA220823 and SA15772)), and three clinically isolated methicillin-resistant strains (MRSA-Z, MRSA11, and MRSA22). All strains were grown in Luria-Bertani (LB) broth.
(§2) The minimum inhibitory concentration (MIC) for all strains was determined using the […] assay based on a previous study with minor modifications. Initially, strains in the exponential phase were diluted to a concentration of 2 × 10^5 CFU/mL using RPMI 1640 medium (Corning, New York, NY, USA). Next, 100 μL of the bacterial suspension was mixed with 100 μL of the sample solution (final concentration 0–200 μg/mL in RPMI 1640 medium) in 96-well plates. The plates were then incubated at 37 °C for 12–16 h. After incubation, the absorbance at 600 nm was measured, and the MIC was determined as the lowest concentration of the test sample in which no bacterial growth was detected in the well.

In another data set the test system is P. aeruginosa, ATCC9027. In kind it is cell-based, Pseudomonas aeruginosa. The settings on record: RPMI 1640, 37 °C, 12–16 h, absorbance at 600 nm.
The next data set relates to E. coli, ATCC25922. The class given is cell-based, Escherichia coli. As to conditions: RPMI 1640, 37 °C, 12–16 h, absorbance at 600 nm.
Data set [1] has as its system MRSA-Z (clinically isolated methicillin-resistant S. aureus). In words: microbe, parasite or virus in culture. In kind it is cell-based, Staphylococcus aureus. The settings on record: Staphylococcus aureus, MRSA. The procedure:
as §1, §2

For data set [2], the system named is MRSA11 (clinically isolated methicillin-resistant S. aureus). Nature of the data set: microbe, parasite or virus in culture. In kind it is cell-based, Staphylococcus aureus. As to conditions: Staphylococcus aureus. As for the experimental part: as §1, §2
The test system of data set [3] is MRSA22 (clinically isolated methicillin-resistant S. aureus). In words: microbe, parasite or virus in culture. In kind it is cell-based, Staphylococcus aureus. The settings on record: Staphylococcus aureus. The procedure:
as §1, §2

For data set [4], the system named is SA15772 (clinically isolated S. aureus). Nature of the data set: microbe, parasite or virus in culture. In kind it is cell-based, Staphylococcus aureus. As to conditions: Staphylococcus aureus. The procedure: as §1, §2
Data set [5] deals with SA220823 (clinically isolated S. aureus). Nature of the data set: microbe, parasite or virus in culture. In kind it is cell-based, Staphylococcus aureus. As to conditions: Staphylococcus aureus. As for the experimental part: as §1, §2
Data set [6] has as its system MRSA-Z. In words: Bacterial killing kinetic assay. In kind it is cell-based, Staphylococcus aureus. As to conditions: 10 × MIC, 6 h, RPMI 1640, 37 °C, CFU count, 3 individual experiments. The procedure:
(§3) The bactericidal killing kinetic assay was performed according to a previous study with minor modifications. Firstly, S. aureus ATCC6538 or methicillin-resistant S. aureus MRSA-Z was diluted to 2 × 10^5 CFU/mL using RPMI 1640 medium. Equal volumes of either RK22 (final concentration 1, 5, 10 × MIC) or vancomycin (Macklin, Shanghai, China) (final concentration 1, 5, 10 × MIC) solutions were added to the bacterial suspension. The mixtures were then incubated at 37 °C for different times (0, 15, 30, 60, 180, and 360 min). At each time point, the bacterial solution was inoculated on LB agar culture medium, and colony forming units (CFUs) were counted after 24 h.

Data set [7] concerns S. aureus ATCC6538. Nature of the data set: Bacterial killing kinetic assay. The class given is cell-based, Staphylococcus aureus. The settings on record: RPMI 1640, 37 °C, CFU count, 3 individual experiments. The procedure: as §3
The test system of data set [8] is MRSA-Z. In words: S. aureus-induced bacteremia model. The class given is in vivo, mouse. The settings on record: RK22 8 mg/kg, vancomycin 4 mg/kg ip 1 h after infection, 4 h after administration. The procedure:
(§4) S. aureus ATCC6538 or methicillin-resistant S. aureus MRSA-Z were diluted to a concentration of 1 × 10^9 CFU/mL with normal saline. Male C57BL/6 mice (6–8 weeks of age) were randomly divided into seven groups of 10–12 mice per group. S. aureus ATCC6538 (100 μL) or methicillin-resistant S. aureus MRSA-Z (200 μL) were injected intravenously. At the end of 1 h, mice received an intraperitoneal injection of normal saline, vancomycin (dissolved in saline with the concentration of 2 and 4 mg/kg), or RK22 (dissolved in saline with the concentration of 2, 4, and 8 mg/kg). At 4 h post-administration, the mice were sacrificed, and blood and lung samples were collected. Lungs were then weighed and placed in 1 mL of PBS and homogenized on ice with a tissue grinder. Homogenates and clarified blood were plated in LB agar culture medium and CFUs were counted after 24 h. For histopathological analysis, sections of lung were fixed with 4% paraformaldehyde, embedded in paraffin wax, and stained with H&E.

Data set [9] has as its system S. aureus ATCC6538. Nature of the data set: S. aureus-induced bacteremia model. As to conditions: RK22 8 mg/kg, vancomycin 4 mg/kg ip 1 h after infection, 4 h after administration. The class given is in vivo, mouse. As for the experimental part: as §4
The target of the next data set is T1, FXa (Homo sapiens, UniProt P00742).
T1 construct: purchased Enzymeresearch, Lake Oswego, OR, USA
Nature of the data set: Enzymatic activity assay of coagulation factors, chromogenic substrate. The class given is biochemical. The settings on record: 40, 200, 1000 nM, 10 min pre-incubation, substrate S-2222, 405 nm. As for the experimental part: (§5) The enzymatic activity of RK22 and LL-37 against coagulation factors was measured using the chromogenic substrate method. In brief, 5 μL of FXa (Enzymeresearch, Lake Oswego, OR, USA) (final concentration 3 μg/mL) or thrombin (Enzymeresearch, Lake Oswego, OR, USA) (final concentration 0.1056 μg/mL) and 5 μL of sample (final concentration 40, 200, and 1000 nM) were incubated for 10 min in 96-well plates, respectively. Following incubation, thrombin substrate (S-2238, Chromogenix, Milano, Italy, 45 μg/mL) or FXa substrate (S-2222, Chromogenix, Milano, Italy, 90 μg/mL) dissolved with 90 μL of enzyme dynamic buffer (100 mM NaCl, 50 mM Tris, 5 mM CaCl2, pH 8.0) were added and absorbance was measured at 405 nm every 1 min for 90 min.

The target of the next data set is T2, thrombin (Homo sapiens, UniProt P00734).
T2 construct: purchased Enzymeresearch, Lake Oswego, OR, USA
The description is as above. The settings on record: 40, 200, 1000 nM, 10 min pre-incubation, substrate S-2238, 405 nm. In kind it is biochemical. The procedure:
as §5

A further data set concerns washed platelets. Nature of the data set: Platelet activity assay, flow cytometry. In kind it is cell-based. The settings on record: mouse washed platelets, 20, 10, 5, 2.5 μg/mL, 10 min, P-selectin. The procedure: Platelets were isolated from the mice as described in a previous study with minor modifications. The effect of RK22 and LL-37 on platelet activity was detected by flow cytometry. Mouse blood was mixed with Tyrode’s buffer A (137 mM NaCl, 2 mM KCl, 0.3 mM NaH2PO4, 12 mM NaHCO3, 5.5 mM glucose, 0.35% BSA, 1 mM MgCl2, and 0.2 mM EDTA, pH 6.5) and centrifuged (150× g, 10 min, room temperature) to obtain platelet-rich plasma (PRP), which was then pelleted (400× g, 5 min, room temperature), washed with Tyrode’s buffer A, and finally resuspended in Tyrode’s buffer B (137 mM NaCl, 2 mM KCl, 0.3 mM NaH2PO4, 12 mM NaHCO3, 5.5 mM glucose, 0.35% BSA and 2 mM CaCl2, pH 7.4). Antibodies against P-selectin (Biolegend, San Diego, CA, USA) were added to the platelets, followed by incubation for 10 min at room temperature. Samples (20, 10, 5, and 2.5 μg/mL) or normal saline were added, respectively, and analyzed by flow cytometry (BD, LSRFortessa^TM, Franklin Lakes, NJ, USA).

[10] abbreviates: P. aeruginosa ATCC9027 in Table 3.

In brackets after ≈: the same amount, converted by molar mass. Where two headings read alike, the source gives them in different places. Residues, ends and D or L forms follow the SMILES beside them. No end group written: not given here.

T1 sequence (P00742 235-488 limits assumed): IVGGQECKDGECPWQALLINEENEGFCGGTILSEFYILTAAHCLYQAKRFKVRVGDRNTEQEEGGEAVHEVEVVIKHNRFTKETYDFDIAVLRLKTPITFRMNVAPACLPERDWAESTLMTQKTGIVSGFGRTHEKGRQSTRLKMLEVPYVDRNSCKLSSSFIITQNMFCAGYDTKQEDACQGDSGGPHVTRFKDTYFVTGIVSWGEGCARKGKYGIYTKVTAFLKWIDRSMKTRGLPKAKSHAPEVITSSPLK
T1 sequence (P00742 41-179 partner limits assumed): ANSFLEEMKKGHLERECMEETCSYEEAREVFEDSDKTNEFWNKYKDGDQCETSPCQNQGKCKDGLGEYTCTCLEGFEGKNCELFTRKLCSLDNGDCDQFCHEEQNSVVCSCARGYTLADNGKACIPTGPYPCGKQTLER

On to KSSNTKAKKKKKNN [KS14], for which the MIC against S. aureus (ATCC6538) was 50 µg/mL; against P. aeruginosa, ATCC9027 (setting [10]), above 100 µg/mL; in the data set on E. coli, ATCC25922 (E. coli ATCC25922) it was above 100 µg/mL.

As to “KSKSKKPSKSKPKKKKTSVVQQELQDVISFDFGC [KS34]”, the MIC against P. aeruginosa, ATCC9027 (setting [10]) is above 100 µg/mL; in the data set on E. coli, ATCC25922 (E. coli ATCC25922) it was above 100 µg/mL.

With `CN[C@H](CC(C)C)C(=O)N[C@H]1C(=O)N[C@@H](CC(N)=O)C(=O)N[C@H]2C(=O)N[C@H]3C(=O)N[C@H](C(=O)N[C@H](C(=O)O)c4cc(O)cc(O)c4-c4cc3ccc4O)[C@H](O)c3ccc(c(Cl)c3)Oc3cc2cc(c3O[C@@H]2O[C@H](CO)[C@@H](O)[C@H](O)[C@H]2O[C@H]2C[C@](C)(N)[C@H](O)[C@H](C)O2)Oc2ccc(cc2Cl)[C@H]1O` [Vancomycin, vancomycin, reference compound], the MIC (in data set [1]; in data set [2]; in data set [3]; in the data set with S. aureus (ATCC6538) (Staphylococcus aureus); in data set [4]; in data set [5]) was 1.56 µg/mL (≈ 1.08 µM) each time. For the same compound, the “MRSA-Z inhibited / eradicated” value with MRSA-Z [6] is “about 80%”. The “time to a kill rate of more than 90%” value in the data set with S. aureus ATCC6538 [7] (S. aureus ATCC6538, 5 × MIC) is 6 h; in the data set with S. aureus ATCC6538 [7] (S. aureus ATCC6538, 10 × MIC), 6 h. Moreover, the “infection-induced tissue injury in the lung (H&E)” value in the data set on MRSA-Z [8] is recorded as “significantly alleviated”. The “infection-induced hemorrhage and inflammatory cell infiltration in the lung (H&E)” value in the data set on S. aureus ATCC6538 [9] is recorded as “significantly alleviated”.

`CC(C)C[C@H](NC(=O)[C@@H](NC(=O)[C@@H](NC(=O)[C@H](CS)NC(=O)[C@@H](NC(=O)[C@H](CCCCN)NC(=O)[C@H](CCCCN)NC(=O)[C@H](CCCCN)NC(=O)[C@H](CCCCN)NC(=O)[C@@H]1CCCN1C(=O)[C@H](CCCCN)NC(=O)[C@@H]1CCCN1C(=O)[C@H](CCCCN)NC(=O)[C@@H]1CCCN1C(=O)[C@H](CS)NC(=O)[C@H](CC(C)C)NC(=O)[C@@H](NC(=O)[C@H](C)NC(=O)[C@@H](N)CCCNC(=N)N)C(C)C)C(C)C)C(C)C)C(C)C)C(=O)O` [RA19] (H-RAVLCPKPKPKKKKVCVVL-OH; N-terminus and C-terminus assumed): the MIC entry against P. aeruginosa, ATCC9027 (P. aeruginosa ATCC27853 as printed in the text) is recorded as “exceeding 100 μg/mL”; with E. coli, ATCC25922 (E. coli ATCC8739 as printed in the text), “exceeding 100 μg/mL”.

Regarding KTRRRNRKHKKTINTETVQI [KT20], the MIC against S. aureus (ATCC6538) is 50 µg/mL; in the data set on P. aeruginosa, ATCC9027 (setting [10]) it was above 100 µg/mL; against E. coli, ATCC25922 (E. coli ATCC25922), above 100 µg/mL.

Turning to VFLICFSLISPASFENVRAKW [VF21], the MIC was above 100 µg/mL against P. aeruginosa, ATCC9027 (setting [10]) and above 100 µg/mL with E. coli, ATCC25922 (E. coli ATCC25922).

Take LL-37: on FXa, the “effect on enzymatic activity of FXa” value was “significant potentiation activity”. Also, at thrombin, the “effect on enzymatic activity of thrombin” value is recorded as “significant potentiation activity”. For the same compound, in the data set on washed platelets, the platelet activation result was “significant and dose-dependent effects on platelet activation”.
